How the values were obtained:
Assay type in all cases: cell-based, human
IPW = test: RNA-sequencing of Angelman syndrome iPSC neurons: IPW; conditions: 30 μM, RNA-seq; for Difference, IPW RNA level relative to vehicle: six days post-treatment
Experimental: (§1) RNA was isolated using Qiagen RNAeasy Plus (74136, Qiagen, Hilden, Germany). RNA concentration was determined using Qubit Fluorometric Quantitation (Thermo Fisher Scientific) and RNA quality was assessed using a 4200 Agilent TapeStation (Agilent, Santa Clara, Calif.). RNA-sequencing libraries were generated using the Illumina TruSeq Stranded Total RNA kit (20020597, Illumina, Inc., San Diego, Calif.) according to the manufacturer's protocol. 75 base-pair paired-end sequencing was performed using a NextSeq 500 (IIlumina, San Diego, Calif.) at the Texas A&M Institute for Genome Sciences and Society Genomics core. Raw sequencing reads were processed using CASAVA. The resulting FASTQ sequences were examined using FASTQC.
Angelman syndrome induced pluripotent stem cells derived neurons Angelman syndrome iPS cells (AG1-0 iPSCs) (ECN001, Kerafast, Boston, Mass.) were co-cultured on irradiated murine embryonic fibroblasts in human embryonic stem cell medium [DMEM/F12 (11330-057, Gibco Biosciences, Dublin, Ireland), 20% Knockout Serum Replacement (10828-028, Thermo Fisher Scientific), 1× Non-essential amino acids, 2 mM L-glutamine, […] 2-Mercaptoethanol, and 4 μg/mL basic Fibroblast Growth Factor]. […]
(§2) To determine whether ASO-4.4.PS.L and ASO-6.1.PO-1.O affect the levels of RNA transcripts encoded by the PWS polycistronic transcript, RNA-sequencing was performed on AS iPS cells treated with each ASO and the steady state RNA levels of SNURF, SNRPN, the SNORD116 host-gene transcript (SNHG116), the SNORD116 snoRNAs, IPW, the SNORD115 host-gene transcript (SNHG115), the SNORD115 snoRNAs, and UBE3A-AS were quantified. UBE3A steady state RNA levels were also measured. […]
Normalized FPKM (fragments per […] per million) values of the RefSeq gene annotation will be estimated using Cuffnorm with the default settings and the following option: −u. The FPKM values of each gene annotation was determined for each sample from the output file and used for descriptive and inferential statistics.

SNORD116 snoRNAs = test: RNA-sequencing of Angelman syndrome iPSC neurons: SNORD116 snoRNAs; conditions: 30 μM; six days post-treatment; RNA-seq
Experimental: as §1, with “FASTQC. […]” for “FASTQC.”
as §2

UBE3A = UBE3A steady state RNA (qRT-PCR) in GABAergic iPSC-derived neurons; conditions: 10-point dose curve 1 nM-30 μM; 14 DIV to 20 DIV

| Compound | Difference, IPW RNA level relative to vehicle (IPW) | Difference, SNORD116 RNA level relative to vehicle (SNORD116 snoRNAs) | effect on total UBE3A RNA levels (in words) (UBE3A) | reduction of IPW levels (IPW; effect not significant) [fold] |
| --- | --- | --- | --- | --- |
| C^O*U^O*G^O*G^O-t*g*t*c*a*a*c*a*a*g-C^O*C^O*A^O*A^o [ASO-6.1.PO-1.O] | 0.18 | −0.04 | – | – |
| U^O*A^O*G^O*A^O*A^O*t*g*g*c*a*c*a*t*c*t*C^O*U^O*U^O*G^O*G^O [ASO-4] | – | – | increased total UBE3A RNA levels in a dose-dependent manner | – |
| A^L*G^L*A^L*a*t*g*g*c*a*c*a*t*c*t*5mC^L*T^L*T^L*G^L (NNNATGGCACATCTNNNN; LNA gapmer, PS, 5-methylcytosine, chemistry not fully specified) [ASO-4.4.PS.L] | −0.49 | 0.27 | – | 1.5 |
| CC[C@@]1(O)C(=O)OCc2c1cc1n(c2=O)Cc2cc3c(CN(C)C)c(O)ccc3nc2-1 [Topotecan, reference compound] | – | – | increased total UBE3A RNA levels in a dose-dependent manner, except for Topotecan at higher concentrations | – |
